According to article PMC6635573, “A live cell NanoBRET binding assay allows the study of ligand-binding kinetics to the adenosine A3 receptor” (Purinergic Signalling, 2019):

What was measured:
human A3AR [1] = target: T1, human A3AR (Homo sapiens, UniProt P0DMS8); test: NanoBRET saturation binding of fluorescent antagonists in live Nluc-A3AR HEK293 cells
T1 sequence (P0DMS8 1-318): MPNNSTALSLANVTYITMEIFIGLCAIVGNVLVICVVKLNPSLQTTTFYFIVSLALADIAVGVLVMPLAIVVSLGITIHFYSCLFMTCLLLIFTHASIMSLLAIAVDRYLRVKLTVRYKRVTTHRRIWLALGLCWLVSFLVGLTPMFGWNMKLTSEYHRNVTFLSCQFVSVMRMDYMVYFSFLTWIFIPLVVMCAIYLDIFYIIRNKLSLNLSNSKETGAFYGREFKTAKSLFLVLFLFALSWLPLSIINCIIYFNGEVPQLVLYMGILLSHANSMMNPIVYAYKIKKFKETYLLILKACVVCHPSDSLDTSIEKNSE
Experimental: (§4) For saturation and competition binding assays, the required concentration of fluorescent ligand and competing ligand was added simultaneously and incubated for 1 h (for AV039) or 3 h (for XAC-S-ser-S-tyr-X-BY630) at 37 °C (no CO2). After 1 h, 10 μM furimazine was added to each well and the plate incubated for 5 min at 37 °C before reading. […] For association kinetic experiments, following the furimazine incubation, the required concentration of fluorescent ligand in the presence or absence of 10 μM MRS1220 was added simultaneously and the plate read immediately once per minute for up to 3 h at 37 °C. For kinetic competition association assays, after furimazine incubation, either XAC-S-ser-S-tyr-X-BY630 (20 nM) or AV039 (40 nM) were added simultaneously with the required concentration of unlabelled ligand or 10 μM MRS1220 to determine non-specific binding and read once per minute for the indicated times at 37 °C. For all NanoBRET experiments, fluorescence and luminescence were read using a PHERAstar FS plate reader (BMG Labtech, Ortenberg, Germany). Filtered light emissions were measured at 460 nm (80 nm band pass) and at > 610 nm (long pass) for the BY630 labelled ligands and at 450 nm (80 nm band pass) and > 550 nm (long pass) for the BYFL labelled ligand. The raw NanoBRET ratio was calculated by dividing the fluorescence emission (610 or 550 nm) by the luminescence emission (460 or 450 nm).
NanoBRET total and non-specific saturation binding curves were fitted simultaneously using the following equation: BRET ratio=Bmax.B/B+KD+M.B+C where Bmax is the maximal specific binding achieved, [B] is the concentration of fluorescent ligand, KD is the equilibrium dissociation constant, M is the slope of the non-specific binding component and C is the intercept with the Y-axis.
Initially, we determined the affinity of each of these fluorescent antagonists at NanoLuc tagged A3AR (Nluc-A3AR) in the NanoBRET assay.

human A3AR [2] = target: T1, human A3AR; test: NanoBRET association kinetics of fluorescent antagonists in live Nluc-A3AR HEK293 cells; settings: for residence time: read-out: Kinetics RT (residence time); for koff: read-out: Kinetics koff; for kon: read-out: Kinetics kon
Experimental: as §4
For NanoBRET association kinetic data, non-specific binding was determined in wells with fluorescent ligand plus 10 μM MRS1220 and this was obtained for each concentration of fluorescent ligand at each time point. This was subsequently subtracted from total binding at the equivalent time point. The data were simultaneously fit to the following equations: Y=Ymax1−e^−kobst kon=kobs−koff/L where Ymax equals the level of binding at infinite time (t), kobs is the rate constant for the observed rate of association at a particular concentration of L, [L] is the ligand concentration in molar, koff is the dissociation rate constant of the ligand in per minute and kon is the association rate constant in per molar per minute. From this, the equilibrium dissociation constant (KD) is determined as follows: KD=koff/kon

human A3AR [3] = target: T1, human A3AR; test: [3H]PSB-11 radioligand competition association (Motulsky and Mahan) in Nluc-A3AR HEK293 membranes; format: binding; parameters: expressed in transfected cells; settings: for Kd: read-out: Kinetics pKD (converted)
Experimental: (§1) Prior to all experiments, membranes from HEK293 membranes expressing human Nluc-A3AR were diluted to 20 μg/well in a total volume of 100 μL/well assay buffer (50 mM Tris-HCl, 5 mM MgCl2, supplemented with 0.01% CHAPS and 1 mM EDTA, pH 7.4) and homogenised using an IKA T10 Ultra-Turrax disperser in 3 × 5 s bursts at 15,000 rpm. For equilibrium displacement assays, membranes were placed in 96-well microplates at 10 °C and the required concentration of competing agonist was added in the presence of a final concentration of ~ 10 nM [^3H] […] For association assays, Nluc-A3AR HEK293 membranes were placed at 10 °C in 96-well microplates and the amount of radioligand bound to the receptor was measured at different time points during a total incubation of 120 min. For dissociation experiments, HEK293 membranes expressing human Nluc-A3AR were incubated for 120 min with ~ 10 nM [^3H] […] The competition association assays were initiated by the addition of Nluc-A3AR HEK293 membranes at different time points for a total of 240 min to a total volume of 100 μl/well of assay buffer at 10 °C with ~ 10 nM [^3H] […] For all experiments, incubation was terminated by rapid filtration performed on 96-well GF/B filter plates using a PerkinElmer Filtermate-harvester (PerkinElmer, Groningen, The Netherlands). After drying the filter plate at 50 °C for 30 min, the filter-bound radioactivity was determined by scintillation spectrometry using a 2450 MicroBeta^2 Plate Counter (PerkinElmer, Boston, MA). In addition, the exact concentration of [^3H]
(§2) The binding kinetics of unlabelled ligands was quantified using the competition association assay based on the theoretical framework by Motulsky and Mahan. NanoBRET and radioligand data were fitted into the competition association model using ‘kinetics of competitive binding’ to determine association and dissociation rate constants of the unlabelled compounds:
KA=k1L⋅10^−9+k2KB=k3I⋅10^−9+k4S=KA−KB^2+4⋅k1⋅k3⋅L⋅I⋅10^−18KF=0.5KA+KB+SKS=0.5KA+KB−SQ=Bmax⋅k1⋅L⋅10^−9/KF−KSY=Q⋅k4⋅KF−KS/KF⋅KS+k4−KF/KFe^−KF⋅X−k4−KS/KSe^−KS⋅X where k1 is the kon of the labelled ligand (M^−1 min^−1), k2 is the koff of the labelled ligand (min^−1), L is the concentration of the labelled ligand in nanomolar, I is the concentration of the unlabelled competitor (nM), X is the time (min) and Y is the specific binding of the labelled ligand (NanoBRET ratio or DPM).
(§3) k1 and k2 values were generated from association kinetic experiments. k3, k4 and Bmax were then calculated, where k3 represents the kon (M^−1 min^−1) of the unlabelled ligand, k4 stands for the koff (min^−1) of the unlabelled ligand and Bmax equals the total binding (NanoBRET ratio or DPM). The residence time (RT) was calculated as the reciprocal of the ligand dissociation rate constant as follows: RT=1/koff
This was borne out in the kinetics parameters obtained from fitting the data to the Motulsky and Mahan model (Table 2).

human A3AR [4] = target: T1, human A3AR; test: [3H]PSB-11 radioligand equilibrium displacement in Nluc-A3AR HEK293 membranes; format: binding; parameters: expressed in transfected cells; settings: read-out: Equilibrium competition pKi (converted)
Experimental: Prior to all experiments, membranes from HEK293 membranes expressing human Nluc-A3AR were diluted to 20 μg/well in a total volume of 100 μL/well assay buffer (50 mM Tris-HCl, 5 mM MgCl2, supplemented with 0.01% CHAPS and 1 mM EDTA, pH 7.4) and homogenised using an IKA T10 Ultra-Turrax disperser in 3 × 5 s bursts at 15,000 rpm. For equilibrium displacement assays, membranes were placed in 96-well microplates at 10 °C and the required concentration of competing agonist was added in the presence of a final concentration of ~ 10 nM [^3H] […] For all experiments, incubation was terminated by rapid filtration performed on 96-well GF/B filter plates using a PerkinElmer Filtermate-harvester (PerkinElmer, Groningen, The Netherlands). […] In addition, the exact concentration of [^3H]

human A3AR [5] = target: T1, human A3AR; test: NanoBRET equilibrium competition binding with AV039 as probe in Nluc-A3AR HEK293 cells
Experimental: For saturation and competition binding assays, the required concentration of fluorescent ligand and competing ligand was added simultaneously and incubated for 1 h (for AV039) or 3 h (for XAC-S-ser-S-tyr-X-BY630) at 37 °C (no CO2). After 1 h, 10 μM furimazine was added to each well and the plate incubated for 5 min at 37 °C before reading. […] For association kinetic experiments, following the furimazine incubation, the required concentration of fluorescent ligand in the presence or absence of 10 μM MRS1220 was added simultaneously and the plate read immediately once per minute for up to 3 h at 37 °C. For kinetic competition association assays, after furimazine incubation, either XAC-S-ser-S-tyr-X-BY630 (20 nM) or AV039 (40 nM) were added simultaneously with the required concentration of unlabelled ligand or 10 μM MRS1220 to determine non-specific binding and read once per minute for the indicated times at 37 °C. For all NanoBRET experiments, fluorescence and luminescence were read using a PHERAstar FS plate reader (BMG Labtech, Ortenberg, Germany). Filtered light emissions were measured at 460 nm (80 nm band pass) and at > 610 nm (long pass) for the BY630 labelled ligands and at 450 nm (80 nm band pass) and > 550 nm (long pass) for the BYFL labelled ligand. […]

human A3AR [6] = target: T1, human A3AR; test: NanoBRET kinetic competition association with XAC-S-ser-S-tyr-X-BY630 as probe in Nluc-A3AR HEK293 cells; format: binding; parameters: expressed in transfected cells; settings: for Kinetics RT (probe XAC-S-ser-S-tyr-X-BY630): reciprocal of koff, NanoBRET competition association with 20 nM XAC-S-ser-S-tyr-X-BY630, cells
Experimental: as §2
The residence time (RT) was calculated as the reciprocal of the ligand dissociation rate constant as follows: RT=1/koff

human A3AR [7] = target: T1, human A3AR; test: NanoBRET equilibrium competition binding with XAC-S-ser-S-tyr-X-BY630 as probe in Nluc-A3AR HEK293 cells; parameters: expressed in transfected cells
human A3AR [8] = target: T1, human A3AR; test: NanoBRET kinetic competition association with AV039 as probe in Nluc-A3AR HEK293 cells; format: binding; parameters: expressed in transfected cells; settings: for Kd: read-out: Kinetics pKD (probe AV039) (converted); for Kinetics RT (probe AV039): reciprocal of koff, NanoBRET competition association with 40 nM AV039, cells
Experimental: as §2, §3

human A3AR [9] = target: T1, human A3AR; test: [3H]PSB-11 saturation binding (KD used for the Ki calculation); parameters: expressed in transfected cells; settings: radioligand, saturation binding assay of this study, read-out: KD, equilibrium dissociation constant of the labelled ligand
human A3AR [10] = target: T1, human A3AR; test: [3H]PSB-11 radioligand association and dissociation in Nluc-A3AR HEK293 membranes; format: binding; parameters: expressed in transfected cells; settings: 10 °C
Experimental: as §1
To confirm the differences in the kinetics observed with AV039 and XAC-S-ser-S-tyr-X-BY630, radioligand equilibrium and kinetic binding assays in membranes from HEK293 cells stably expressing Nluc-A3AR were undertaken.

[11] = read-out: Kinetics koff (converted)
[12] = read-out: Kinetics kon (converted)
[13] = NanoBRET competition association with 40 nM AV039, Nluc-A3AR HEK293 cells, 37 °C
[14] = association and dissociation curves of 10 nM [3H]PSB-11, Nluc-A3AR HEK293 membranes

Kd (human A3AR [1]) [nM]	Kd (human A3AR [2]) [nM]	residence time (human A3AR [2]) [min]	koff (human A3AR [2]) [s⁻¹]	kon (human A3AR [2]) [M⁻¹ s⁻¹]	Compound	koff (human A3AR [3]; [11]) [s⁻¹]	kon (human A3AR [3]; [12]) [M⁻¹ s⁻¹]	Kd (human A3AR [3]) [nM]	Ki (human A3AR [4]) [nM]	Kinetics RT (probe XAC-S-ser-S-tyr-X-BY630) (human A3AR [6]; 37 °C) [min]	Kinetics RT (probe AV039) (human A3AR [8]; 37 °C) [min]	other results
7.76	44.7	6.8 ± 0.8	0.0025	61200	COc1ccc(-n2nc3c(NC(=O)CCC(=O)NCCOCCOCCNC(=O)CCCCCNC(=O)COc4ccc(/C=C/C5=[N+]6C(=Cc7ccc(-c8cccs8)n7[B-]6(F)F)C=C5)cc4)nc4ccccc4n3c2=O)cc1 [AV039]	0.00127	54500	23.4	22.4			
					COc1cccc(Cn2c(=O)n(CC3CC3)c(=O)c3c2nc2cc(OC)ccn23)c1 [LUF7565]			0.776	1.02	49.2 ± 6.7	72.9 ± 8.3	Ki (human A3AR [5]): 11.7 nM; koff (human A3AR [3]; read-out: Kinetics koff): 0.000108 s⁻¹; kon (human A3AR [3]; read-out: Kinetics kon): 136000 M⁻¹ s⁻¹; Kd (human A3AR [6]): 13.5 nM; koff (human A3AR [6]; NanoBRET competition association with 20 nM XAC-S-ser-S-tyr-X-BY630, Nluc-A3AR HEK293 cells, 37 °C, read-out: Kinetics koff (probe XAC-S-ser-S-tyr-X-BY630) (converted)): 0.000367 s⁻¹; kon (human A3AR [6]; NanoBRET competition association with 20 nM XAC-S-ser-S-tyr-X-BY630, Nluc-A3AR HEK293 cells, 37 °C, read-out: Kinetics kon (probe XAC-S-ser-S-tyr-X-BY630) (converted)): 26800 M⁻¹ s⁻¹; Ki (human A3AR [7]): 100 nM; Kd (human A3AR [8]; [13]): 6.76 nM; koff (human A3AR [8]; read-out: Kinetics koff (probe AV039)): 0.00025 s⁻¹; kon (human A3AR [8]; read-out: Kinetics kon (probe AV039)): 44700 M⁻¹ s⁻¹
					CC[C@@H]1CN2C(=O)N(C)c3nc(-c4ccccc4)[nH]c3C2=N1 [PSB-11]					22.4 ± 6.1	6.6 ± 1.3	
16.6	17.8	14.9 ± 1.1	0.00115	65800	CCCn1c(=O)c2[nH]c(-c3ccc(OCC(=O)NCCNC(=O)[C@H](CO)NC(=O)[C@H](Cc4ccc(O)cc4)NC(=O)CCCCCNC(=O)CCc4ccc5n4[B-](F)(F)[N+]4=C(C)C=C(C)C4=C5)cc3)nc2n(CCC)c1=O [XAC-S-ser-S-tyr-X-BYFL]							
					COc1ccn2c(c1)nc1c2c(=O)[nH]c(=O)n1Cc1ccccc1 [compound 5, 1-Benzyl-8-methoxy-1H,3H-pyrido[2,1-f]purine-2,4-dione]	0.0033	110000	29.5	44.7	23.2 ± 3.6	1.1 ± 0.4	Ki (human A3AR [5]): 89.1 nM; Kd (human A3AR [6]): 288 nM; koff (human A3AR [6]; read-out: Kinetics koff (probe XAC-S-ser-S-tyr-X-BY630)): 0.000783 s⁻¹; kon (human A3AR [6]; read-out: Kinetics kon (probe XAC-S-ser-S-tyr-X-BY630)): 2670 M⁻¹ s⁻¹; Ki (human A3AR [7]): 832 nM; koff (human A3AR [8]; NanoBRET competition association with 40 nM AV039, Nluc-A3AR HEK293 cells, 37 °C, read-out: Kinetics koff (probe AV039) (converted)): 0.0235 s⁻¹; kon (human A3AR [8]; NanoBRET competition association with 40 nM AV039, Nluc-A3AR HEK293 cells, 37 °C, read-out: Kinetics kon (probe AV039) (converted)): 183000 M⁻¹ s⁻¹; Kd (human A3AR [8]; [13]): 123 nM
					[^3H]8-Ethyl-4-methyl-2-phenyl-(8R)-4,5,7,8-tetrahydro-1H-imidazo[2,1-i]-purin-5-one [[^3H]PSB-11]							Kd (human A3AR [9]): 9.9 nM; Kinetics kon (human A3AR [10]; [14]): 2.75 ± 0.52 × 10^6 M^−1 min^−1; Kinetics pKD (human A3AR [10]; [14]): 8.04 ± 0.08; Kinetics koff (human A3AR [10]; association and dissociation curves of 10 nM [3H]PSB-11, dissociation initiated with 10 μM PSB-11, membranes): 0.000383 ± 3.3e-05 s⁻¹; Kinetics RT (residence time) (human A3AR [10]; reciprocal of koff, 10 nM [3H]PSB-11, Nluc-A3AR HEK293 membranes): 44.6 ± 3.9 min

Compound	Kd (human A3AR [1]) [nM]	Kd (human A3AR [2]) [nM]	residence time (human A3AR [2]) [min]	koff (human A3AR [2]) [s⁻¹]	kon (human A3AR [2]) [M⁻¹ s⁻¹]	koff (human A3AR [3]; [11]) [s⁻¹]	kon (human A3AR [3]; [12]) [M⁻¹ s⁻¹]	Kd (human A3AR [3]) [nM]	Ki (human A3AR [4]) [nM]	Kinetics RT (probe XAC-S-ser-S-tyr-X-BY630) (human A3AR [6]; 37 °C) [min]	Kinetics RT (probe AV039) (human A3AR [8]; 37 °C) [min]	other results
CCCn1c(=O)c2[nH]c(-c3ccc(OCC(=O)NCCNC(=O)[C@H](CO)NC(=O)[C@H](Cc4ccc(O)cc4)NC(=O)CCCCCNC(=O)COc4ccc(/C=C/C5=[N+]6C(=Cc7ccc(-c8cccs8)n7[B-]6(F)F)C=C5)cc4)cc3)nc2n(CCC)c1=O [XAC-S-ser-S-tyr-X-BY630]	3.09	2.69	288 ± 62	7.17e-05	27700	3.83e-05	2330	18.2	61.7			residence time (human A3AR [3]; read-out: RT (residence time)): > 450 min
